Experimental findings from patent US10597364B2, “Anthelmintic compounds, compositions and method of using thereof” (priority 2015, dated 2020) are described below.

Like-named read-outs stand apart in the source and are kept apart here.

The test system of assay [1] is microfilaria of Dirofilaria immitis. Kind of assay: Method C: microfilaria of Dirofilaria immitis motility screen. It counts as cell-based. To be noted: read-out: inhibition of the microfilaria's motility.
The test system of the next assay is Haemonchus contortus. The experiment in a line: Method A: Haemonchus contortus L1 larval development/motility screen in microtitre plate. The assay is classed as cell-based. Particulars: 96 h, read-out: motility inhibition.

Consider `CCOC(=O)N1CCN(c2cccc(O[C@H]3CC[C@H](Nc4ccc([N+](=O)[O-])c(C(F)(F)F)c4)CC3)n2)CC1` [Compound 110], for which the inhibition at 5 ppm in assay [1] (24 h) is no less than 90%. Still for that read-out and setting: as for `CCNC(=O)N1CCN(c2cccc(O[C@H]3CC[C@H](Nc4ccc([N+](=O)[O-])c(C(F)(F)F)c4)CC3)n2)CC1` [Compound 131], the figure is no less than 90%. As for `N#Cc1ccc(N[C@H]2CC[C@H](Oc3cncc(N4CCN(C(=O)CC5CCCC5)CC4)c3)CC2)cc1C(F)(F)F` [Compound 180], in the assay with Haemonchus contortus, the inhibition at 5 µM was no less than 90%.

Consider `CNC(=O)N1CCN(c2ccnc(O[C@H]3CC[C@H](Nc4ccc([N+](=O)[O-])c(C(F)(F)F)c4)CC3)c2)CC1` [Compound 155], for which the inhibition at 10 µM in assay [1] (24 h) is no less than 90%. With `O=C(NC1CCCC1)N1CCN(c2cccc(O[C@H]3CC[C@H](Nc4ccc([N+](=O)[O-])c(C(F)(F)F)c4)CC3)n2)CC1` [Compound 147], the inhibition at 10 µM in assay [1] (24 h) was no less than 90%. Regarding `O=C(Nc1ccc(C(F)(F)F)cc1)N1CCN(c2cncc(O[C@H]3CC[C@H](Nc4ccc([N+](=O)[O-])c(C(F)(F)F)c4)CC3)c2)CC1` [Compound 94], in the assay on Haemonchus contortus, the inhibition at 5 µM was no less than 90%. As to `CC(C)(C)NC(=S)N1CCN(c2ccnc(O[C@H]3CC[C@H](Nc4ccc([N+](=O)[O-])c(C(F)(F)F)c4)CC3)c2)CC1` [Compound 93], the inhibition at 5 ppm in assay [1] (24 h) is no less than 90%. For the compound `CCCCC(=O)N1CCN(c2cccc(O[C@H]3CC[C@H](Nc4ccc([N+](=O)[O-])c(C(F)(F)F)c4)CC3)n2)CC1` [Compound 136], the inhibition at 10 µM in assay [1] (24 h) was no less than 90%.

`CC(C)(C)OC(=O)N1CCN(c2ncccc2O[C@H]2CC[C@H](Nc3ccc([N+](=O)[O-])c(C(F)(F)F)c3)CC2)CC1` [Compound 121]: the inhibition at 5 ppm in assay [1] (24 h) was no less than 90%. Consider `CCCNC(=O)N1CCN(c2cccc(O[C@H]3CC[C@H](Nc4ccc([N+](=O)[O-])c(C(F)(F)F)c4)CC3)n2)CC1` [Compound 127, N-propyl-4-(6-[[4-[[4-nitro-3-(trifluoromethyl)phenyl]amino]cyclohexyl]oxy]pyridin-2-yl)piperazine-1-carboxamide], for which the inhibition at 5 ppm in assay [1] (5 ppm, 24 hours) was no less than 90%. `CC(C)(C)CN1CCN(c2ccnc(O[C@H]3CC[C@H](Nc4ccc([N+](=O)[O-])c(C(F)(F)F)c4)CC3)c2)CC1` [Compound 84]: in the assay on Haemonchus contortus, the inhibition at 5 µM was no less than 90%. `CCCNC(=S)N1CCN(c2cncc(O[C@H]3CC[C@H](Nc4ccc([N+](=O)[O-])c(C(F)(F)F)c4)CC3)c2)CC1` [Compound 119]: the inhibition at 5 ppm in assay [1] (24 h) is no less than 90%. As for `O=C(CC1CCCC1)N1CCN(c2cncc(O[C@H]3CC[C@H](Nc4ccc(S(=O)(=O)C(F)(F)F)cc4)CC3)c2)CC1` [Compound 193], the inhibition at 5 µM with Haemonchus contortus was no less than 90%. As for `CCNC(=S)N1CCN(c2cncc(O[C@H]3CC[C@H](Nc4ccc([N+](=O)[O-])c(C(F)(F)F)c4)CC3)c2)CC1` [Compound 124], the inhibition at 5 ppm in assay [1] (24 h) was no less than 90%. For `CC(C)(C)OC(=O)N1CCN(c2cc(O[C@H]3CC[C@H](Nc4ccc(C#N)c(C(F)(F)F)c4)CC3)ccn2)CC1` [Compound 151], the inhibition at 10 µM in assay [1] (24 h) was no less than 90%. Regarding `O=C(Nc1ccc(C(F)(F)F)cc1)N1CCN(c2ccnc(O[C@H]3CC[C@H](Nc4ccc([N+](=O)[O-])c(C(F)(F)F)c4)CC3)c2)CC1` [Compound 138], the inhibition at 10 µM in assay [1] (24 h) was no less than 90%. `O=C(Nc1ccc(C(F)(F)F)cc1)N1CCN(c2cccc(O[C@H]3CC[C@H](Nc4ccc([N+](=O)[O-])c(C(F)(F)F)c4)CC3)n2)CC1` [Compound 139]: in assay [1] (24 h), the inhibition at 10 µM is no less than 90%. As for `O=[N+]([O-])c1ccc(N[C@H]2CC[C@H](Oc3cncc(N4CCN(Cc5nc6cc(C(F)(F)F)ccc6s5)CC4)c3)CC2)cc1C(F)(F)F` [Compound 62], the inhibition at 5 µM with Haemonchus contortus is no less than 90%. Take `O=S(=O)(c1ccc(N[C@H]2CC[C@H](Oc3cncc(N4CCN(c5ccc(C(F)(F)F)cn5)CC4)c3)CC2)cc1)C(F)(F)F` [Compound 195]: in assay [1] (24 h), the inhibition at 10 µM is no less than 90%. Still for that read-out and setting: the same measure for `O=C(Nc1ccc(F)cc1)N1CCN(c2ccnc(O[C@H]3CC[C@H](Nc4ccc([N+](=O)[O-])c(C(F)(F)F)c4)CC3)c2)CC1` [Compound 112]: no less than 90%. The same measure, in the same setting: the same measure for `O=[N+]([O-])c1ccc(N[C@H]2CC[C@H](Oc3ccnc(N4CC5CN(c6ccc(C(F)(F)F)cn6)CC5C4)c3)CC2)cc1C(F)(F)F` (some centres unmarked) [Compound 140]: no less than 90%. On to `CCCNC(=S)N1CCN(c2cccc(O[C@H]3CC[C@H](Nc4ccc([N+](=O)[O-])c(C(F)(F)F)c4)CC3)n2)CC1` [Compound 120], for which the inhibition at 5 ppm in assay [1] (24 h) was no less than 90%. On to `CCCOC(=O)N1CCN(c2cc(O[C@H]3CC[C@H](Nc4ccc(S(=O)(=O)C(F)(F)F)cc4)CC3)ccn2)CC1` [Compound 187], for which the inhibition at 10 µM in assay [1] (24 h) was no less than 90%. `O=C(CC1CCCC1)N1CCN(c2cncc(O[C@H]3CC[C@H](Nc4ccc([N+](=O)[O-])c(C(F)(F)F)c4)CC3)c2)CC1` [Compound 20]: the inhibition at 5 µM in the assay with Haemonchus contortus was no less than 90%. As to `CC(C)(C)NC(=O)N1CCN(c2cccc(O[C@H]3CC[C@H](Nc4ccc([N+](=O)[O-])c(C(F)(F)F)c4)CC3)n2)CC1` [Compound 150], in assay [1] (24 h), the inhibition at 10 µM is no less than 90%. With `O=[N+]([O-])c1ccc(N[C@H]2CC[C@H](Oc3cccc(N4CCN(CC5CCCC5)CC4)n3)CC2)cc1C(F)(F)F` [Compound 142], the inhibition at 10 µM in assay [1] (24 h) was no less than 90%. In the case of `CCC(=O)N1CCN(c2cccc(O[C@H]3CC[C@H](Nc4ccc([N+](=O)[O-])c(C(F)(F)F)c4)CC3)n2)CC1` [Compound 115], in assay [1] (24 h), the inhibition at 5 ppm is no less than 90%. As for `CCNC(=S)N1CCN(c2cccc(O[C@H]3CC[C@H](Nc4ccc([N+](=O)[O-])c(C(F)(F)F)c4)CC3)n2)CC1` [Compound 125], in assay [1] (24 h), the inhibition at 5 ppm is no less than 90%.

As for `CCCOC(=O)N1CCN(c2ccnc(O[C@H]3CC[C@H](Nc4ccc(C#N)c(C(F)(F)F)c4)CC3)c2)CC1` [Compound 74], the inhibition at 5 µM in the assay with Haemonchus contortus is no less than 90%. `O=[N+]([O-])c1ccc(N[C@H]2CC[C@H](Oc3ccnc(N4CCN(CC(F)(F)F)CC4)c3)CC2)cc1C(F)(F)F` [Compound 108]: the inhibition at 5 ppm in assay [1] (24 h) is no less than 90%. As for `CNC(=O)N1CCN(c2cncc(O[C@H]3CC[C@H](Nc4ccc([N+](=O)[O-])c(C(F)(F)F)c4)CC3)c2)CC1` [Compound 154], the inhibition at 10 µM in assay [1] (24 h) is no less than 90%. As for `CC(C)(C)OC(=O)N1CCN(c2cncc(O[C@H]3CC[C@H](Nc4ccc(C#N)c(C(F)(F)F)c4)CC3)c2)CC1` [Compound 50], the inhibition at 5 µM with Haemonchus contortus was no less than 90%. On the same count and under the same terms, as for `O=[N+]([O-])c1ccc(N[C@H]2CC[C@H](Oc3cncc(N4CCN(c5ccc6cc(C(F)(F)F)ccc6n5)CC4)c3)CC2)cc1C(F)(F)F` [Compound 90], the figure is no less than 90%. On to `CN(c1ccc([N+](=O)[O-])c(C(F)(F)F)c1)[C@H]1CC[C@H](Oc2ccnc(N3CCN(C(=O)NC(C)(C)C)CC3)c2)CC1` [Compound 132], for which the inhibition at 10 µM in assay [1] (10 μM, 24 hours) was no less than 90%. Take `CC(C)(C)NC(=S)N1CCN(c2cncc(O[C@H]3CC[C@H](Nc4ccc([N+](=O)[O-])c(C(F)(F)F)c4)CC3)c2)CC1` [Compound 91]: the inhibition at 5 ppm in assay [1] (24 h) was no less than 90%. In the case of `CCCNC(=S)N1CCN(c2ccnc(O[C@H]3CC[C@H](Nc4ccc([N+](=O)[O-])c(C(F)(F)F)c4)CC3)c2)CC1` [Compound 99], in assay [1] (24 h), the inhibition at 1 ppm is no less than 90% and the inhibition at 5 ppm is no less than 90%. On to `CNC(=S)N1CCN(c2cccc(O[C@H]3CC[C@H](Nc4ccc([N+](=O)[O-])c(C(F)(F)F)c4)CC3)n2)CC1` [Compound 130], for which, in assay [1] (24 h), the inhibition at 5 ppm was no less than 90%. For `O=[N+]([O-])c1ccc(N[C@H]2CC[C@H](Oc3cncc(N4CCN(C(=S)Nc5ccc(C(F)(F)F)cc5)CC4)c3)CC2)cc1C(F)(F)F` [Compound 88], in the assay on Haemonchus contortus, the inhibition at 5 µM was no less than 90%.

Consider `CNC(=S)N1CCN(c2cncc(O[C@H]3CC[C@H](Nc4ccc([N+](=O)[O-])c(C(F)(F)F)c4)CC3)c2)CC1` [Compound 128], for which, in assay [1] (24 h), the inhibition at 5 ppm was no less than 90%. As for `CCCN1CCN(c2cccc(O[C@H]3CC[C@H](Nc4ccc([N+](=O)[O-])c(C(F)(F)F)c4)CC3)n2)CC1` [Compound 158], in assay [1] (24 h), the inhibition at 10 µM was no less than 90%. With `O=[N+]([O-])c1ccc(N[C@H]2CC[C@H](Oc3cncc(N4CCN(C(=S)Nc5ccc(F)cc5)CC4)c3)CC2)cc1C(F)(F)F` [Compound 92], the inhibition at 5 ppm in assay [1] (24 h) was no less than 90%.

As for `O=C(CC1CCCC1)N1CCN(c2ccnc(O[C@H]3CC[C@H](Nc4ccc(S(=O)(=O)C(F)(F)F)cc4)CC3)c2)CC1` [Compound 163], the inhibition at 5 µM in the assay on Haemonchus contortus is no less than 90%.

For the compound `O=C(Cc1cc(C(F)(F)F)cc(C(F)(F)F)c1)N1CCN(c2cc(O[C@H]3CC[C@H](Nc4ccc([N+](=O)[O-])c(C(F)(F)F)c4)CC3)ccn2)CC1` [Compound 137], in assay [1] (24 h), the inhibition at 10 µM is no less than 90%. Regarding `CC(C)(C)NC(=S)N1CCN(c2cccc(O[C@H]3CC[C@H](Nc4ccc([N+](=O)[O-])c(C(F)(F)F)c4)CC3)n2)CC1` [Compound 116], in assay [1] (24 h), the inhibition at 5 ppm is no less than 90%. Turning to `CCCOC(=O)N1CCN(c2cc(O[C@H]3CC[C@H](Nc4ccc(C#N)c(C(F)(F)F)c4)CC3)ccn2)CC1` [Compound 176], the inhibition at 5 µM in the assay on Haemonchus contortus was no less than 90%. As to `O=[N+]([O-])c1ccc(N[C@H]2CC[C@H](Oc3ccnc(N4CCN(Cc5ccc(C(F)(F)F)cc5)CC4)c3)CC2)cc1C(F)(F)F` [Compound 56], in assay [1] (24 h), the inhibition at 1 ppm is no less than 90% and the inhibition at 5 ppm was no less than 90%. As for `CC(C)(C)OC(=O)N1CCN(c2cc(O[C@H]3CC[C@H](Nc4ccc(S(=O)(=O)C(F)(F)F)cc4)CC3)ccn2)CC1` [Compound 186], the inhibition at 10 µM in assay [1] (24 h) is no less than 90%. With `O=[N+]([O-])c1ccc(N[C@H]2CC[C@H](Oc3cncc(N4CCN(S(=O)(=O)C(F)(F)F)CC4)c3)CC2)cc1C(F)(F)F` [Compound 63], the inhibition at 5 µM in the assay on Haemonchus contortus is no less than 90%. `CNC(=S)N1CCN(c2ccnc(O[C@H]3CC[C@H](Nc4ccc([N+](=O)[O-])c(C(F)(F)F)c4)CC3)c2)CC1` [Compound 129]: the inhibition at 5 ppm in assay [1] (24 h) was no less than 90%. On to `CCCCN1CCN(c2cccc(O[C@H]3CC[C@H](Nc4ccc([N+](=O)[O-])c(C(F)(F)F)c4)CC3)n2)CC1` [Compound 157], for which the inhibition at 10 µM in assay [1] (24 h) was no less than 90%. As for `CCN1CCN(c2cc(O[C@H]3CC[C@H](Nc4ccc([N+](=O)[O-])c(C(F)(F)F)c4)CC3)ccn2)CC1` [Compound 160], the inhibition at 10 µM in assay [1] (24 h) is no less than 90%.
